For experiment [1], the system named is Vγ9/Vδ2 T cells. Kind of experiment: In vitro Vγ9/Vδ2 T cell activation assay (PBMCs, CD69+ CD25+ by flow cytometry). As to conditions: for EC50: Homo sapiens, T-cell, read-out: EC50 (activation of Vγ9/Vδ2 T cells); for Activation of Vγ9/Vδ2 T cells at the highest concentration studied: 100 μM compared with 10 μM. The experiment is classed as cell-based, human. On the procedure:
Subsequently, we studied the ability of these HMBP phosphonodiamidate ProPAgens to activate Vγ9/Vδ2 T cells and elicit their lysis of cancer cells in vitro. For this, peripheral blood mononuclear cells (PBMCs) derived from healthy donors and containing Vγ9/Vδ2 T cells were incubated with increasing concentrations of zoledronate or phosphonodiamidate HMBP ProPAgens 9a–d and 14a–d (up to 100 μM) (Fig. 4). Peripheral blood γδ T cells lack appreciable levels of surface CD69 or CD25 under steady-state conditions, but TCR stimulation upregulates both T cell activation markers.[6] Thus, PAg-responsive Vγ9/Vδ2 T cells were then assessed for the upregulation of CD69 and CD25.
Fig. 4 In vitro phosphonodiamidate ProPAgen-mediated activation of Vγ9/Vδ2 T cells, following overnight incubation with zoledronate, and HMBP ProPAgens 9a–d and 14a–d. Levels of activation are represented as % of Vγ9/Vδ2 T cells that are CD69+ CD25+. Data is shown as mean ± SE (n = 4). (A) Activation of Vγ9/Vδ2 stimulated by phosphonodiamidate ProPAgens 9a–d. (B) Activation of Vγ9/Vδ2 stimulated by ProPAgens 14a–d. (C) Activation of Vγ9Vδ2 stimulated by zoledronate (Zol). (D) EC50 values were calculated using GraphPad Prism v9 based on the results of the activation assay.
As for the activation of Vγ9/Vδ2 T cells by the phosphonodiamidate ProPAgens (9a–d and 14a–d), these were initially tested using a concentration range from […] to 100 μM (Fig. 4A and B).
Healthy donor peripheral blood mononuclear cells (PBMCs) were harvested as previously described.[20] To assess the activation of Vγ9/Vδ2 T cells, PBMCs were seeded into U-bottom tissue culture-treated 96-well plates at a cell density of 500 000 cells per well. The cells were incubated with medium-only (control), in the presence of zoledronate at 10 pM to 100 μM, and with HMBP ProPAgens initially at 10 pM to 100 μM, and then at 1 aM to 100 μM for compounds 9d and 14d in a separate experiment. The cells were incubated at 37 °C/5% CO2 overnight, and stained by flow cytometry for the following markers: viability (Zombie Aqua 1 : 400), CD3 (BV421 1 : 100), CD8 (BV650 1 : 200), Vγ9 (PEcy5 1 : 400), Vδ2 (APC 1 : 200), CD69 (PE 1 : 25), CD25 (FITC 1 : 100). The samples were acquired via LSRFortessa X20 (BD Biosciences), and the data obtained were analyzed using FlowJo v10 and GraphPad Prism v9 software.
In general terms: A flow cytometer gives signals particle by particle.

A further experiment deals with T24 cells. Kind of experiment: Europium-based (DELFIA) cytotoxicity assay: Vγ9/Vδ2 T cell killing of drug-treated T24 cells. Also on record: species or system human. Conditions: 10 nM ProPAgen for 2 h versus 10 μM zoledronate; effector : target 80 : 1, 1 h. How it is done:
Encouraged by the potency and specificity of our HMBP phosphonodiamidate ProPAgens, especially 9d and 14d, we subsequently studied their ability to sensitize the urinary bladder carcinoma cell line T24 for targeted killing by in vitro expanded Vγ9/Vδ2 T cells (Fig. 5). In brief, T24 cells were incubated in PBS containing 10 μM zoledronate or the indicated HMBP phosphonodiamidate ProPAgens for a period of 2 h. A positive control for cell death (target cells incubated with 10% v/v DELFIA lysis buffer) and media-only treated control (no drug) was also included. The cells were then washed and cocultured with ex vivo expanded Vγ9/Vδ2 T cells for 1 h at 80 : 1 effector : target ratio, and the level of killing of T24 cells was then measured via time-resolved fluorescence.
Fig. 5 Cytotoxicity of Vγ9/Vδ2 T cells toward the phosphonodiamidate ProPAgen-treated T24 cells. % killing of T24 cells was calculated with this formula: [(experimental release − spontaneous release)/(maximal release − spontaneous release)] × 100. […]
To assess the level of killing of drug-treated and untreated tumour cells, a Europium-based cytotoxicity assay was performed (DELFIA, Perkin Elmer) as described elsewhere.[47] […] Time-resolved fluorescence was then measured using a PHERAstar microplate reader (BMG Labtech). […] The data were processed and analysed using Microsoft Excel and GraphPad Prism v9 software.

The test system of experiment [2] is Vγ9/Vδ2 T cells. Conditions: read-out: EC50 (activator of Vγ9/Vδ2 T cells), cited from earlier work.
The mark [3] stands for this setting: Fig. 1A legend, no reference given.

Like-named read-outs stand apart in the source and are kept apart here.

For `C/C(=C\CCP(=O)(N[C@@H](C)C(=O)OC(C)C)N[C@@H](C)C(=O)OC(C)C)CO` [14b, Diisopropyl 2,2′-((((E)-5-hydroxy-4-methylpent-3-en-1-yl)phosphoryl)bis(azanediyl))(2S,2′S)-dipropionate], the EC50 with Vγ9/Vδ2 T cells [1] was 87 nM. Consider `C/C(=C\CCP(=O)(N[C@@H](C)C(=O)OCc1ccccc1)N[C@@H](C)C(=O)OCc1ccccc1)CO` [14d, Dibenzyl 2,2′-((((E)-5-hydroxy-4-methylpent-3-en-1-yl)phosphoryl)bis(azanediyl))(2S,2′S)-dipropionate], for which the “sensitizing effect for killing of T24 cells by Vγ9/Vδ2 T cells” value in the experiment with T24 cells was “much more potent”. In the experiment on Vγ9/Vδ2 T cells [1], the “Activation of Vγ9/Vδ2 T cells at the highest concentration studied” value is given as “less than that achieved with 10 μM” and the EC50 was 27 nM. For `C/C(=C\CC(F)(F)P(=O)(N[C@@H](C)C(=O)OCc1ccccc1)N[C@@H](C)C(=O)OCc1ccccc1)CO` [9d, Dibenzyl 2,2′-((((E)-1,1-difluoro-5-hydroxy-4-methylpent-3-en-1-yl)phosphoryl)bis(azanediyl))(2S,2′S)-dipropionate], the “sensitizing effect for killing of T24 cells by Vγ9/Vδ2 T cells” value in the experiment on T24 cells is “much more potent”. For the same compound, the “Activation of Vγ9/Vδ2 T cells at the highest concentration studied” value in the experiment on Vγ9/Vδ2 T cells [1] is “less than that achieved with 10 μM”. Regarding `O=P(O)(O)C(O)(Cc1cccnc1)P(=O)(O)O` [risedronate], in the experiment on Vγ9/Vδ2 T cells [2] (setting [3]), the EC50 was 80 to 5000 nM. With `COC(=O)[C@H](C)NP(=O)(N[C@@H](C)C(=O)OC)C(F)(F)C/C=C(\C)CO` [9a, Dimethyl 2,2′-((((E)-1,1-difluoro-5-hydroxy-4-methylpent-3-en-1-yl)phosphoryl)bis(azanediyl))(2S,2′S)-dipropionate], in the experiment on Vγ9/Vδ2 T cells [1], the EC50 was 191 nM. Turning to `C=C(C)CCOP(=O)(O)OP(=O)(O)O` [IPP, isopentenyl pyrophosphate], the EC50 in the experiment on Vγ9/Vδ2 T cells [2] (setting [3]) was 1000 to 10000 nM.

As to `C/C(=C\CC(F)(F)P(=O)(N[C@@H](C)C(=O)OC(C)(C)C)N[C@@H](C)C(=O)OC(C)(C)C)CO` [9c, Di-tert-butyl 2,2′-((((E)-1,1-difluoro-5-hydroxy-4-methylpent-3-en-1-yl)phosphoryl)bis(azanediyl))(2S,2′S)-dipropionate], in the experiment on Vγ9/Vδ2 T cells [1], the EC50 is 1500 nM. Same read-out and setting: with `C/C(=C\CCP(=O)(N[C@@H](C)C(=O)OC(C)(C)C)N[C@@H](C)C(=O)OC(C)(C)C)CO` [14c, Di-tert-butyl 2,2′-((((E)-5-hydroxy-4-methylpent-3-en-1-yl)phosphoryl)bis(azanediyl))(2S,2′S)-dipropionate] the figure was 6100 nM.

For the compound `C/C(=C\COP(=O)(O)OP(=O)(O)O)CO` [HMBPP, (E)-4-hydroxy-3-methyl-but-2-enyl pyrophosphate], the EC50 in the experiment on Vγ9/Vδ2 T cells [2] (setting [3]) is 0.06 to 0.5 nM. Take `C/C(=C\COP(=O)(O)O)CO` [HMBP, (E)-4-Hydroxy-3-methylbut-2-enyl monophosphate]: the EC50 with Vγ9/Vδ2 T cells [2] was 4000 nM. For `O=P(O)(O)C(O)(Cn1ccnc1)P(=O)(O)O` [Zoledronate, zoledronate], the EC50 in the experiment with Vγ9/Vδ2 T cells [2] (setting [3]) is 3 to 3000 nM.

The values are drawn from publication PMC11253855, “Phosphonodiamidate prodrugs of phosphoantigens (ProPAgens) exhibit potent Vγ9/Vδ2 T cell activation and eradication of cancer cells” (RSC Medicinal Chemistry, 2024).
